Ends that are not written are not given here.
Columns and labels:
[1] = system: circulating CD8^+ T cells; assay: ex vivo combinatorial HLA-A2 MMr assay on PBMCs; type: cell-based, human
Procedure: All peptides were synthesized at >90% purity (Synpeptides). HLA-A2 MMrs were produced as described (Leisner et al., 2008) and staining performed in the presence of 50 nM dasatinib (Lissina et al., 2009), as described (Culina et al., 2018). Briefly, cryopreserved PBMCs were magnetically depleted of CD8^− cells (StemCell Technologies), stained with the combinatorial MMr panels (Hadrup et al., 2009) and acquired using a FACSAria III cytometer.

[2] = system: circulating CD8^+ T cells; assay: ex vivo HLA-A3 multimer (MMr) staining of PBMCs; type: cell-based, human; conditions: HLA-A3^+ T1D and healthy donors
Procedure: HLA-A3 MMrs were produced and used as described (Gonzalez-Duque, Cell Metab 2018). Each peptide-HLA-A3 complex was used at a final concentration of 8-27 nM and conjugated with fluorochrome-labeled streptavidin at a 1:4 ratio. The concentration of each fluorescent MMr was corrected for the variable staining index of each streptavidin, in order to obtain a distinct double-MMr^+ population for each fluorochrome pair. Compensations were set using fluorescence-minus-one samples (i.e. omitting one streptavidin at a time). The combinatorial MMr panel was first set up by staining HLA-A3^+ PBMCs with the same set of fluorescent streptavidin-labeled MMrs, all loaded with the Flu NP265-273 epitope, which yielded a similar MMr^+CD8^+ T-cell frequency for all the 15 MMr combination pairs.
PBMCs were thawed at 37° C. and immediately diluted in pre-warmed AIM-V medium. Following centrifugation and one additional wash in AIM-V, PBMCs were counted and rested in the presence of 50 nM dasatinib for 30 min at 37° C. to prevent internalization of T-cell receptors before magnetic depletion of CD8^− cells (StemCell Technologies). Staining was performed for 20 min at 20° C. in […] PBS-dasatinib for 10^7 cells with combinatorial double-coded MMr panels, followed, without washing, by CD3-APC-H7 (RRID AB_1645475), CD8-PE-Cy7 (AB_396852), CD45RA-FITC (AB_395879), CCR7-BV421 (AB_2728119) monoclonal antibodies and Live/Dead Aqua (ThermoFisher) staining at 4° C. for 20 min. After one wash, cells were acquired using a FACSAria III cytometer. […] Flow cytometry data were analyzed with FlowJo v10 and Graphpad Prism 7.0 software. Cells were sequentially gated on small lymphocytes, singlets, live cells (Live/Dead Aqua l, CD3^+CD8^+ T cells and total PE^+, PE-CF594^+, APC^+, BV650^+, BV711^+ and BV786^+ MMr^+ T cells. Using Boolean operators, these latter gates allowed to selectively visualize each double-MMr^+ population by including only those events positive for the corresponding fluorochrome pair. For example, SCG3166-174 MMr^+ cells (PE^+PE-CF594^+) were visualized by gating on events that were PE^+PE-CF594^+APC^−BV650^−BV711^−BV786^−. Events negative for all MMr fluorochromes (PE^−PE-CF594^−APC^−BV650^−BV711^−BV786^−) were represented in the same PE/PE-CF-594 dot plot to set the double-MMr^+ gate. CD45RA and CCR7 staining was subsequently visualized by gating on these MMr^+ cells.

[3] = system: islet-infiltrating CD8^+ T cells of NOD mice; assay: IFN-γ recall assay of islet-infiltrating cells against peptide-pulsed K^d+ L cells; type: cell-based, mouse; conditions: 12-16-week-old NOD females; for percentage of IFN-γ^+CD8^+ cells, median / percentage of IFN-γ^+CD8^+ cells, positive range: 6 h recall; for positive mice (IFN-γ^+CD8^+ cells >1.8%): positive / tested
Description: Peptides predicted to be restricted by the murine MHC Class I K^d molecule were identified using prediction algorithms and scanning of the whole murine protein sequence. Peptides were first tested in pools, and positive pools subsequently deconvoluted for reactivity against individual peptides. To this end, islets were isolated from 12-16-week-old NOD mice by collagenase digestion and put in culture with recombinant human IL-2 (Proleukin, Novartis) for 5 days as described (Brezar et al, Eur J Immunol 2012). Cells exiting the islets were subsequently collected and subjected to recall assays against K^d+ L antigen-presenting cells pulsed with the indicated peptides for 6 h in the presence of brefeldin-A, followed by intracellular staining for IFN-γ. The TUM, Ins B15-23 and IGRP 206-214 peptides were included as negative control and positive controls, respectively.

[4] = system: pancreas-infiltrating cells of HLA-A2^+ T1D patients; assay: in-situ HLA-A2 MMr staining on pancreas sections; type: cell-based, human; conditions: 2 HLA-A2^+ T1D cases (nPOD)
Procedure: In-situ staining was performed as described (Culina et al., 2018). Unfixed, frozen sections were dried for 2 h, loaded with 1 μg of MMrs overnight at 4° C., washed gently with phosphate-buffered saline and fixed in 2% paraformaldehyde for 10 min. After a further wash, endogenous peroxidase activity was blocked with 0.3% H2O2. Sections were then incubated serially with rabbit anti-phycoerythrin, horseradish peroxidase-conjugated swine anti-rabbit and 3,3′-diaminobenzidine tetrahydrochloride substrate (ThermoFisher). After a final wash, sections were counterstained with hematoxylin, dehydrated via sequential passages in 95-100% ethanol and xylene, mounted and analyzed using a Nikon Eclipse Ni microscope with NIS-Elements Analysis D software v4.40.

[5] = HLA-A2^+ healthy donors, screening
[6] = HLA-A2^+ recent-onset T1D and healthy subjects (n=10/each)

CHGA344-352: HLA-A2-restricted HLA-eluted β-cell peptide from chromogranin A (KMDQLAKEL)
cognate naïve CD8^+ T-cell repertoire (frequency 1-50/10^6, clustered MMr staining) validated [1, 5]: validated

FLSGAVNRL [SCG5-009186-194]
cognate naïve CD8^+ T-cell repertoire (frequency 1-50/10^6, clustered MMr staining) validated [1, 5]: validated | frequency of MMr^+ cells (in words) [1, 6]: particularly high and clustered

GQWEDASLLSK
validation as HLA-A3-restricted CD8^+ T-cell epitope [2]: positive hits

GYRDINEIDI [Pcsk2 109-118, murine Pcsk2 peptide predicted to be restricted by K^d]
percentage of positive mice [3]: 50% | percentage of IFN-γ^+CD8^+ cells, median [3]: 1.8% | percentage of IFN-γ^+CD8^+ cells, positive range [3]: 1.9-4.3%

IGRP 206-214: positive control peptide in NOD recall assay (VYLKTNVFL; UniProt Q9Z186 206-214, looked up, fragment) [reference compound]
percentage of positive mice [3]: 100% | percentage of IFN-γ^+CD8^+ cells, median [3]: 12.5% | percentage of IFN-γ^+CD8^+ cells, positive range [3]: 4.5-25.3% | positive mice (IFN-γ^+CD8^+ cells >1.8%) [3]: 13/13

ISL1276-284: HLA-A2-restricted HLA-eluted peptide from insulin gene enhancer protein ISL1 (GLQANPVEV)
in-situ MMr staining of pancreas sections [4]: MMr^+ cells could be detected | cognate naïve CD8^+ T-cell repertoire (frequency 1-50/10^6, clustered MMr staining) validated [1, 5]: validated | median frequency detected in peripheral blood ([1]; T1D patients): 7.2×10^−6

KCNK16129-137: HLA-A2-restricted HLA-eluted β-cell peptide from KCNK16 (ALLGIPLNV)
cognate naïve CD8^+ T-cell repertoire (frequency 1-50/10^6, clustered MMr staining) validated [1, 5]: validated

KIF1A860-868: HLA-A3-restricted islet peptide from KIF1A (LLYPVPLVH)
validation as HLA-A3-restricted CD8^+ T-cell epitope [2]: positive hits

KIF1A1347-1355: HLA-A2-restricted HLA-eluted β-cell peptide from Kinesin Family Member 1A (VLDTSVAYV)
cognate naïve CD8^+ T-cell repertoire (frequency 1-50/10^6, clustered MMr staining) validated [1, 5]: validated

LYDESCSSTL [Pcsk2 341-350, murine Pcsk2 peptide predicted to be restricted by K^d]
percentage of positive mice [3]: 75% | percentage of IFN-γ^+CD8^+ cells, median [3]: 3.3% | percentage of IFN-γ^+CD8^+ cells, positive range [3]: 1.9-5.2% | positive mice (IFN-γ^+CD8^+ cells >1.8%) [3]: 6/8

MLMPVHFLL
cognate naïve CD8^+ T-cell repertoire (frequency 1-50/10^6, clustered MMr staining) validated [1, 5]: validated | frequency of MMr^+ cells (in words) [1, 6]: particularly high and clustered

PCSK230-38: HLA-A2-restricted HLA-eluted β-cell peptide from proprotein convertase 2 (FTNHFLVEL)
cognate naïve CD8^+ T-cell repertoire (frequency 1-50/10^6, clustered MMr staining) validated [1, 5]: validated

PNMA250-58: HLA-A3-binding islet peptide not validated as CD8+ T-cell epitope (RLLGKIFRK)
validation as HLA-A3-restricted CD8^+ T-cell epitope [2]: single exception

PPI6-14: known preproinsulin β-cell epitope used as β-cell positive control (RLLPLLALL; UniProt P01308 6-14, looked up, fragment) [reference compound]
frequency of CD8^+ T cells recognizing the peptide [1, 5]: 1-50 /10^6 CD8^+ T cells | frequency of circulating CD8^+ T cells recognizing the peptide ([1]; HLA-A2^+ recent-onset T1D and healthy subjects (n=10/each), similar in both): 1-50 /10^6 CD8^+ T cells

RLKPSLVGK [SCG5-009193-201, HLA-A3 restricted peptide from mRNA splice variant SCG5-009]
validation as HLA-A3-restricted CD8^+ T-cell epitope [2]: positive hits

RYLEHVQAVI [Pcsk2 501-510, murine Pcsk2 peptide predicted to be restricted by K^d]
percentage of positive mice [3]: 63% | percentage of IFN-γ^+CD8^+ cells, median [3]: 2.7% | percentage of IFN-γ^+CD8^+ cells, positive range [3]: 2.1-8.0% | positive mice (IFN-γ^+CD8^+ cells >1.8%) [3]: 5/8

SCG3166-174: HLA-A3-restricted islet peptide from secretogranin III (AVFDKIVSK)
validation as HLA-A3-restricted CD8^+ T-cell epitope [2]: positive hits

SCG5186-195: HLA-A2-restricted HLA-eluted β-cell peptide from SCG5 (7B2) (YLQGQRLDNV)
cognate naïve CD8^+ T-cell repertoire (frequency 1-50/10^6, clustered MMr staining) validated [1, 5]: validated

TYFLLPLLL [Ucn3 5-13, murine Ucn3 peptide predicted to be restricted by K^d]
percentage of positive mice [3]: 67% | percentage of IFN-γ^+CD8^+ cells, median [3]: 2.3% | percentage of IFN-γ^+CD8^+ cells, positive range [3]: 2.1-8.6% | positive mice (IFN-γ^+CD8^+ cells >1.8%) [3]: 8/12

VFSCLNTAL [Ucn3 32-40, murine Ucn3 peptide predicted to be restricted by K^d]
percentage of positive mice [3]: 67% | percentage of IFN-γ^+CD8^+ cells, median [3]: 1.9% | percentage of IFN-γ^+CD8^+ cells, positive range [3]: 1.9-3.3% | positive mice (IFN-γ^+CD8^+ cells >1.8%) [3]: 8/12

ZnT8186-184: positive control islet peptide (VAANIVLTV; UniProt Q8IWU4 186-194, looked up, fragment) [reference compound]
in-situ MMr staining of pancreas sections [4]: MMr^+ cells could be detected

— patent US12098179B2, “Antigenic peptides deriving from urocortin 3 and uses thereof for the diagnosis and treatment of type 1 diabetes” (INSERM (INSTITUT NATIONAL DE LA SANTÉ ET DE LA RECHERCHE …, priority 2018, dated 2024)
